Assay results as given in patent US7612064B2, “Sulfopyrroles” (Takeda Pharmaceutical Company Limited, priority 2003, dated 2009).

Columns and labels:
[1] = Hoechst 33342 nuclear staining; type: cell-based; conditions: for Hoechst 33342 nuclear staining score, H460: H460 cells; for Hoechst 33342 nuclear staining score, HeLa: HeLa cells; for Hoechst 33342 nuclear staining score, Jily: Jily cells; for Hoechst 33342 nuclear staining score, Jurkat: Jurkat cells; for Hoechst 33342 nuclear staining score, MRC5: MRC5 cells; for Hoechst 33342 nuclear staining score, PBLs: key: 0: no activity; 1: weak activity comprising less than 50% of the cells; 2: strong activity comprising more than 50% of the cells;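 for all read-outs here: apoptotic nuclei scored 0 none 1 weak under 50% of cells 2 strong over 50% of cells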
Summary of the method: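 Cells were plated in 96 well tissue culture plates in 80 μl complete medium, with 3-5*10^3 cells per well for adherent lines and 8-10*10^3 for suspension lines. Adherent cells spread for 24 h before treatment, while suspension cells were treated right after seeding. Compounds were added in 20 μl complete medium containing max 5% DMSO.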

HeLa = experiment: MTS proliferation assay; type: cell-based, human; conditions: 72 h
Summary of the method: (§1)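 Compounds at final 10/3/1/0.3 μM (added in complete medium, ≤5% DMSO); 72 h, culture conditions; + MTS, 3 h; A492.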

Jurkat = experiment: MTS proliferation assay; type: cell-based, human; conditions: 72 h
Summary of the method: as §1

Jily = experiment: MTS proliferation assay; type: cell-based; conditions: 72 h
Summary of the method: as §1

MRC5 = experiment: MTS proliferation assay; type: cell-based; conditions: MRC5, 72 h
Summary of the method: as §1

Compound | Hoechst 33342 nuclear staining score, H460 ([1]; conc 0.1) | Hoechst 33342 nuclear staining score, H460 ([1]; conc 0.3) | Hoechst 33342 nuclear staining score, H460 ([1]; conc 1) | Hoechst 33342 nuclear staining score, H460 ([1]; conc 3) | Hoechst 33342 nuclear staining score, HeLa ([1]; conc 0.1) | Hoechst 33342 nuclear staining score, HeLa ([1]; conc 0.3) | Hoechst 33342 nuclear staining score, HeLa ([1]; conc 1) | Hoechst 33342 nuclear staining score, HeLa ([1]; conc 3) | Hoechst 33342 nuclear staining score, Jily ([1]; conc 0.1) | Hoechst 33342 nuclear staining score, Jily ([1]; conc 0.3) | Hoechst 33342 nuclear staining score, Jily ([1]; conc 1) | Hoechst 33342 nuclear staining score, Jurkat ([1]; conc 0.1) | Hoechst 33342 nuclear staining score, Jurkat ([1]; conc 0.3) | Hoechst 33342 nuclear staining score, Jurkat ([1]; conc 1) | Hoechst 33342 nuclear staining score, Jurkat ([1]; conc 3) | Hoechst 33342 nuclear staining score, PBLs ([1]; conc 0.1) | Hoechst 33342 nuclear staining score, PBLs ([1]; conc 0.3) | Hoechst 33342 nuclear staining score, PBLs ([1]; conc 1) | Hoechst 33342 nuclear staining score, PBLs ([1]; conc 3) | IC50 (Jily) [nM] | also measured
COc1cc(-c2cc(-c3cccnc3)cn2S(=O)(=O)c2cn(C)cn2)cc(OC)c1OC [Example 87] | 0 | 0 | 0 | 0 | 0 | 0 | 0 | 0 | 0 | 0 | 0 | 0 | 0 | 0 | 0 | 0 | 0 | 0 | 0 | > 1000 | Hoechst 33342 nuclear staining score, Jily ([1]; conc 3): 0; Hoechst 33342 nuclear staining score, MRC5 ([1]; conc 0.1): 0; Hoechst 33342 nuclear staining score, MRC5 ([1]; conc 0.3): 0; Hoechst 33342 nuclear staining score, MRC5 ([1]; conc 1): 0; Hoechst 33342 nuclear staining score, MRC5 ([1]; conc 3): 0; IC50 (HeLa): > 1000 nM; IC50 (Jurkat): > 1000 nM; IC50 (MRC5): > 1000 nM
COc1cc(-c2cc(-c3ccc(S(N)(=O)=O)cc3)cn2S(=O)(=O)c2ccc(C)cc2)cc(OC)c1OC [Example 57] | – | – | – | – | 0 | 0 | 0 | 2 (strong activity comprising more than 50% of the cells) | – | – | – | 0 | 0 | 1 (weak activity comprising less than 50% of the cells) | 2 (strong activity comprising more than 50% of the cells) | 0 | 0 | 0 | 0 | < 1000 | IC50 (HeLa): < 1000 nM; IC50 (Jurkat): < 200 nM; IC50 (MRC5): < 1000 nM
COc1cc(-c2cc(-c3cccnc3)cn2S(=O)(=O)c2ccccc2Cl)cc(OC)c1OC [Example 84] | 0 | 0 | 0 | 0 | 0 | 0 | 0 | 0 | 0 | 0 | 0 | 0 | 0 | 0 | 0 | 0 | 0 | 0 | 0 | > 1000 | Hoechst 33342 nuclear staining score, Jily ([1]; conc 3): 0; Hoechst 33342 nuclear staining score, MRC5 ([1]; conc 0.1): 0; Hoechst 33342 nuclear staining score, MRC5 ([1]; conc 0.3): 0; Hoechst 33342 nuclear staining score, MRC5 ([1]; conc 1): 0; Hoechst 33342 nuclear staining score, MRC5 ([1]; conc 3): 0; IC50 (HeLa): > 1000 nM; IC50 (Jurkat): > 1000 nM; IC50 (MRC5): > 1000 nM
COc1cc(-c2cc(-c3cncc(CN)c3)cn2S(=O)(=O)c2ccc(C)cc2)cc(OC)c1OC [Example 58] | 0 | 0 | 2 (strong activity comprising more than 50% of the cells) | 2 (strong activity comprising more than 50% of the cells) | 0 | 0 | 2 (strong activity comprising more than 50% of the cells) | 2 (strong activity comprising more than 50% of the cells) | 0 | 0 | 2 (strong activity comprising more than 50% of the cells) | 0 | 2 (strong activity comprising more than 50% of the cells) | 2 (strong activity comprising more than 50% of the cells) | 2 (strong activity comprising more than 50% of the cells) | 0 | 0 | 0 | 0 | < 1000 | Hoechst 33342 nuclear staining score, Jily ([1]; conc 3): 2 (strong activity comprising more than 50% of the cells); Hoechst 33342 nuclear staining score, MRC5 ([1]; conc 0.1): 0; Hoechst 33342 nuclear staining score, MRC5 ([1]; conc 0.3): 0; Hoechst 33342 nuclear staining score, MRC5 ([1]; conc 1): 1 (weak activity comprising less than 50% of the cells); Hoechst 33342 nuclear staining score, MRC5 ([1]; conc 3): 2 (strong activity comprising more than 50% of the cells); IC50 (HeLa): < 1000 nM; IC50 (Jurkat): < 1000 nM; IC50 (MRC5): > 1000 nM
COc1ccc(S(=O)(=O)n2cc(-c3ccc(N)nc3)cc2-c2cc(OC)c(OC)c(OC)c2)cc1 [Example 100, 4-(2-Aminopyrid-5-yl)-1-p-methoxyphenylsulfonyl-2-(3,4,5-trimethoxyphenyl)-pyrrole] | 0 | 2 (strong activity comprising more than 50% of the cells) | 2 (strong activity comprising more than 50% of the cells) | 2 (strong activity comprising more than 50% of the cells) | 0 | 2 (strong activity comprising more than 50% of the cells) | 2 (strong activity comprising more than 50% of the cells) | 2 (strong activity comprising more than 50% of the cells) | 0 | 2 (strong activity comprising more than 50% of the cells) | 2 (strong activity comprising more than 50% of the cells) | 0 | 2 (strong activity comprising more than 50% of the cells) | 2 (strong activity comprising more than 50% of the cells) | 2 (strong activity comprising more than 50% of the cells) | 0 | 0 | 0 | 0 | < 200 | Hoechst 33342 nuclear staining score, Jily ([1]; conc 3): 2 (strong activity comprising more than 50% of the cells); Hoechst 33342 nuclear staining score, MRC5 ([1]; conc 0.1): 0; Hoechst 33342 nuclear staining score, MRC5 ([1]; conc 0.3): 1 (weak activity comprising less than 50% of the cells); Hoechst 33342 nuclear staining score, MRC5 ([1]; conc 1): 2 (strong activity comprising more than 50% of the cells); Hoechst 33342 nuclear staining score, MRC5 ([1]; conc 3): 2 (strong activity comprising more than 50% of the cells); IC50 (HeLa; Homo sapiens): < 200 nM; IC50 (Jurkat; Homo sapiens): < 200 nM; IC50 (MRC5; Homo sapiens): < 200 nM
COc1ccc(S(=O)(=O)n2cc(CNc3ccc(N4CCOCC4)cc3)cc2-c2cc(OC)c(OC)c(OC)c2)cc1 [Example 94, 1-p-Methoxyphenylsulfonyl-4-p-morpholinophenylaminomethyl-2-(3,4,5-trimethoxyphenyl)-pyrrole] | 0 | 2 (strong activity comprising more than 50% of the cells) | 2 (strong activity comprising more than 50% of the cells) | 2 (strong activity comprising more than 50% of the cells) | 0 | 2 (strong activity comprising more than 50% of the cells) | 2 (strong activity comprising more than 50% of the cells) | 2 (strong activity comprising more than 50% of the cells) | 0 | 2 (strong activity comprising more than 50% of the cells) | 2 (strong activity comprising more than 50% of the cells) | 0 | 2 (strong activity comprising more than 50% of the cells) | 2 (strong activity comprising more than 50% of the cells) | 2 (strong activity comprising more than 50% of the cells) | 0 | 0 | 0 | 0 | < 200 | Hoechst 33342 nuclear staining score, Jily ([1]; conc 3): 2 (strong activity comprising more than 50% of the cells); Hoechst 33342 nuclear staining score, MRC5 ([1]; conc 0.1): 0; Hoechst 33342 nuclear staining score, MRC5 ([1]; conc 0.3): 0; Hoechst 33342 nuclear staining score, MRC5 ([1]; conc 1): 0; Hoechst 33342 nuclear staining score, MRC5 ([1]; conc 3): 2 (strong activity comprising more than 50% of the cells); IC50 (HeLa; Homo sapiens): < 200 nM; IC50 (Jurkat; Homo sapiens): < 200 nM; IC50 (MRC5; Homo sapiens): < 200 nM
